Results: patent US6979686B1, “Substituted pyrazoles as p38 kinase inhibitors” (Pharmacia Corporation, priority 2001, dated 2005)
Read-outs that look alike come from different tables or passages of the source.

Target: T1, human p38 kinase alpha (Homo sapiens, UniProt Q16539)
T1 construct: GST (N, cleaved yes); made in house; host or cells: E. coli DH10B
Assay: p38 kinase in vitro assay, phosphorylation of biotinylated PHAS-I with 32P-ATP
Type: biochemical
Details: for inhibition at 1 µM: read-out: P38 alpha kinase % inhib @ conc.

[1] = in vitro P38-alpha kinase inhibition, read-out: P38 alpha kinase IC50
[2] = in vitro P38-alpha kinase, read-out: P38 alpha kinase IC50
[3] = activated human p38 kinase alpha, PHAS-I substrate, 50 μM unlabeled ATP, read-out: p38 kinase IC50

T1 sequence (Q16539 whole entry): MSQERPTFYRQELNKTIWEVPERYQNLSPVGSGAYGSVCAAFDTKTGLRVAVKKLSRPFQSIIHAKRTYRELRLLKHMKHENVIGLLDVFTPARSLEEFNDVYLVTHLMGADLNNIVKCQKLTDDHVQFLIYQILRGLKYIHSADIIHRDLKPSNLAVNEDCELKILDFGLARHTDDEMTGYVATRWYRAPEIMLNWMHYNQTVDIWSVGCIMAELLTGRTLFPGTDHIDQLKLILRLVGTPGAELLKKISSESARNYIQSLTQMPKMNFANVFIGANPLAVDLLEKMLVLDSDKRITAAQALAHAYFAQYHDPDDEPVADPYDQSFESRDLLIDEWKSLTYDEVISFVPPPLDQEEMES

CC(NC(=O)c1ccccn1)c1[nH]nc(-c2ccc(F)cc2)c1-c1ccncc1 (stereo not shown) [Example B-0556]
IC50 [1]: 490 nM

CS(=O)(=O)c1ccccc1S(=O)(=O)N1CCC(c2[nH]nc(-c3ccc(F)cc3)c2-c2ccncc2)CC1 [Example B-1462]
IC50 [2]: 220 nM

Cc1n[nH]c(-c2ccccc2F)c1-c1ccncc1 [Example A-40]
IC50 [3]: 1300 nM

CC(NS(=O)(=O)c1ccc2ccccc2c1)c1[nH]nc(-c2ccc(F)cc2)c1-c1ccncc1 (stereo not shown) [Example B-0617]
IC50 [1]: 45 nM

Cc1ccc(C(=O)NCc2[nH]nc(-c3ccc(F)cc3)c2-c2ccncc2)cc1 [Example B-0021]
inhibition at 1 µM (@ 1.0 uM): 68%

Cc1ccccc1S(=O)(=O)NCCc1[nH]nc(-c2ccc(F)cc2)c1-c1ccncc1 [Example B-1097]
IC50 [1]: < 100 nM

CC(NS(=O)(=O)c1c(Cl)cccc1Cl)c1[nH]nc(-c2ccc(F)cc2)c1-c1ccncc1 (stereo not shown) [Example B-0630]
IC50 [1]: 60 nM

O=S(=O)(NCCCc1[nH]nc(-c2ccc(F)cc2)c1-c1ccncc1)c1ccc(S(=O)(=O)c2ccccc2)s1 [Example B-1293]
IC50 [2]: 310 nM

COc1ccc(NC(=O)NC(Cc2ccccc2)c2[nH]nc(-c3ccc(F)cc3)c2-c2ccncc2)c(OC)c1 (stereo not shown) [Example B-0789]
IC50 [1]: 33000 nM

Cc1c(-c2ccncc2)c(-c2ccc(F)cc2)nn1CC(=O)Nc1ccccc1F [Example B-2432]
P38 alpha kinase IC50, uM or % inhib @ conc. (uM): % inhib (@ 10.0 uM): 86.0% 2

O=C(NCc1[nH]nc(-c2ccc(F)cc2)c1-c1ccncc1)C(c1ccccc1)c1ccccc1 [Example B-0032]
inhibition at 1 µM (@ 1.0 uM): 94%

CCCCCCC(=O)NCc1[nH]nc(-c2ccc(F)cc2)c1-c1ccncc1 [Example B-0015]
inhibition at 1 µM (@ 1.0 uM): 82%

N#Cc1ccccc1S(=O)(=O)NCCCc1[nH]nc(-c2ccc(F)cc2)c1-c1ccncc1 [Example B-1255]
IC50 [2]: 12900 nM

O=S(=O)(NCCc1[nH]nc(-c2ccc(F)cc2)c1-c1ccncc1)c1ccc(C(F)(F)F)cc1 [Example B-1087]
IC50 [1]: 50 nM

COCC(=O)N[C@H]1CC[C@@H](C2=NN=C(c3ccc(Cl)cc3)C2c2ccncc2)CC1 (stereo partly drawn) [Example C-96, 5-cis-[4-N-(METHOXYACETYL)AMINOCYCLOHEXYL]-4-(4-PYRIDYL)-3-(4-CHLOROPHENYL)PYRAZOLE]
IC50 (read-out: P38 alpha kinase IC50): 77 nM

COc1ccc(CNC(=O)Cn2nc(-c3ccc(F)cc3)c(-c3ccncc3)c2C)c(OC)c1 [Example B-2278]
IC50 [2]: 800 nM

O=S(=O)(NC(Cc1ccccc1)c1[nH]nc(-c2ccc(F)cc2)c1-c1ccncc1)C(F)(F)F (stereo not shown) [Example B-0713]
IC50 [1]: 4300 nM

CCNC(=O)NCCc1[nH]nc(-c2ccc(F)cc2)c1-c1ccncc1 [Example B-1049]
P38 alpha kinase % inhib @ conc. (uM) (@ 1.0 uM): 67.0% @

COCCN(CC1CCCCC1)C(=O)Cn1nc(-c2ccc(F)cc2)c(-c2ccncc2)c1C [Example B-2392]
P38 alpha kinase IC50, uM or % inhib @ conc. (uM): % inhib (@ 10.0 uM): 63.0% @

COc1cc(CNC(=O)Cn2nc(-c3ccc(F)cc3)c(-c3ccncc3)c2C)cc(OC)c1OC [Example B-2297]
IC50 [2]: 3590 nM

CC(NC(=O)NC(Cc1ccccc1)c1[nH]nc(-c2ccc(F)cc2)c1-c1ccncc1)c1ccccc1 (stereo not shown) [Example B-0736]
IC50 [1]: 26000 nM

CC(NS(=O)(=O)c1ccc(C(F)(F)F)cc1)c1[nH]nc(-c2ccc(F)cc2)c1-c1ccncc1 (stereo not shown) [Example B-0636]
IC50 [1]: < 100 nM

CC(C)S(=O)(=O)NCCc1[nH]nc(-c2ccc(F)cc2)c1-c1ccncc1 [Example B-1015]
P38 alpha kinase % inhib @ conc. (uM) (@ 1.0 uM): 77.0% @

Cc1c(-c2ccncc2)c(-c2ccc(F)cc2)nn1CC(=O)NC1CCCCCC1 [Example B-2335]
P38 alpha kinase % inhib @ conc. (@ 10.0 uM): 82.0% @

CN(C)S(=O)(=O)NCCc1[nH]nc(-c2ccc(F)cc2)c1-c1ccncc1 [Example B-1115]
IC50 [1]: 24 nM

N#Cc1cccc(C(=O)N2CCC(c3[nH]nc(-c4ccc(F)cc4)c3-c3ccncc3)CC2)c1 [Example B-1396]
IC50 [2]: 1550 nM

C[C@H](NC(=O)NCCc1[nH]nc(-c2ccc(F)cc2)c1-c1ccncc1)c1ccccc1 [Example B-1042]
P38 alpha kinase % inhib @ conc. (uM) (@ 1.0 uM): 79.0% @

CCOC(=O)CCc1[nH]nc(-c2ccc(Cl)cc2)c1-c1ccncc1 [Example A-53]
IC50 [3]: 900 nM

O=C(NCCCc1[nH]nc(-c2ccc(F)cc2)c1-c1ccncc1)c1cc(F)ccc1F [Example B-1349]
IC50 [2]: 37 nM

O=C(NCCc1[nH]nc(-c2ccc(F)cc2)c1-c1ccncc1)c1c(Cl)cccc1Cl [Example B-1147]
IC50 [1]: 95 nM

Cc1c(-c2ccncc2)c(-c2ccc(F)cc2)nn1CC(=O)N1CCC(N(C)C(=O)OC(C)(C)C)C1 (stereo not shown) [Example B-2413]
P38 alpha kinase IC50, uM or % inhib @ conc. (uM): % inhib (@ 10.0 uM): 75.0% @

O=C(NCCc1[nH]nc(-c2ccc(F)cc2)c1-c1ccncc1)C1CCC1 [Example B-0988]
P38 alpha kinase % inhib @ conc. (uM) (@ 1.0 uM): 72.0% @

O=C(NCCCc1[nH]nc(-c2ccc(F)cc2)c1-c1ccncc1)c1ccccc1Cl [Example B-1343]
IC50 [2]: 65 nM

CC(NS(=O)(=O)c1ccccc1F)c1[nH]nc(-c2ccc(F)cc2)c1-c1ccncc1 (stereo not shown) [Example B-0569]
IC50 [1]: 150 nM

O=S(=O)(NCCCc1[nH]nc(-c2ccc(F)cc2)c1-c1ccncc1)c1cc(Cl)c(Cl)s1 [Example B-1257]
IC50 [2]: 1480 nM

O=C(Cc1cccs1)NCCc1[nH]nc(-c2ccc(F)cc2)c1-c1ccncc1 [Example B-1051]
P38 alpha kinase % inhib @ conc. (uM) (@ 1.0 uM): 68.0% @

CN(C)C(=O)NCCc1[nH]nc(-c2ccc(F)cc2)c1-c1ccncc1 [Example B-1035]
P38 alpha kinase % inhib @ conc. (uM) (@ 1.0 uM): 75.0% @

CC(NS(=O)(=O)c1cccc2cccnc12)c1[nH]nc(-c2ccc(F)cc2)c1-c1ccncc1 (stereo not shown) [Example B-0620]
IC50 [1]: 1590 nM

O=C(c1cc(Cl)cc(Cl)c1)N1CCC(c2[nH]nc(-c3ccc(F)cc3)c2-c2ccncc2)CC1 [Example B-1419]
IC50 [2]: 300 nM

Cc1c(-c2ccncc2)c(-c2ccc(F)cc2)nn1CC(=O)N1CCCC1 [Example B-2379]
P38 alpha kinase % inhib @ conc. (@ 100.0 uM): 73.0% @

CC(NC(=O)N1CCOCC1)c1[nH]nc(-c2ccc(F)cc2)c1-c1ccncc1 (stereo not shown) [Example B-0582]
IC50 [1]: 1030 nM

CN(C)C(=O)NCCCc1[nH]nc(-c2ccc(F)cc2)c1-c1ccncc1 [Example B-1212]
P38 alpha kinase % inhib @ conc. (@ 1.0 uM): 90.0% @

Cc1c(-c2ccncc2)c(-c2ccc(F)cc2)nn1CC(=O)NCCN1CCOCC1 [Example B-2284]
IC50 [2]: 4610 nM

O=[N+]([O-])c1ccccc1CS(=O)(=O)NCCc1[nH]nc(-c2ccc(F)cc2)c1-c1ccncc1 [Example B-1070]
IC50 [1]: < 100 nM

O=C(NCCCc1[nH]nc(-c2ccc(F)cc2)c1-c1ccncc1)c1ccc(F)c(F)c1F [Example B-1174]
P38 alpha kinase % inhib @ conc. (uM) (@ 1.0 uM): 80.0% @

CC(C)COC(=O)NC(Cc1ccccc1)c1[nH]nc(-c2ccc(F)cc2)c1-c1ccncc1 (stereo not shown) [Example B-0826]
IC50 [1]: 1740 nM

CC(C)OC(=O)NC(C)c1[nH]nc(-c2ccc(F)cc2)c1-c1ccncc1 (stereo not shown) [Example B-0606]
IC50 [1]: 170 nM

NC(=O)NCCc1[nH]nc(-c2ccc(F)cc2)c1-c1ccncc1 [Example B-1030]
P38 alpha kinase % inhib @ conc. (uM) (@ 1.0 uM): 76.0% @

CCOC(=O)CC(C)NC(=O)Cn1nc(-c2ccc(F)cc2)c(-c2ccncc2)c1C (stereo not shown) [Example B-2343]
P38 alpha kinase % inhib @ conc. (@ 10.0 uM): 43.0% @

CCCOC(=O)NC(Cc1ccccc1)c1[nH]nc(-c2ccc(F)cc2)c1-c1ccncc1 (stereo not shown) [Example B-0792]
IC50 [1]: 1100 nM

O=C(c1cccc(Cl)c1)N1CCC(c2[nH]nc(-c3ccc(F)cc3)c2-c2ccncc2)CC1 [Example B-1394]
IC50 [2]: 320 nM

O=C(COCc1ccccc1)NCc1[nH]nc(-c2ccc(F)cc2)c1-c1ccncc1 [Example B-0006]
inhibition at 1 µM (@ 1.0 uM): 82%
